Patent US20040029905A1, “Use of weak opioids and mixed opioid agonists/antagonists for treatment of urinary incontinence” (Gruenenthal GmbH, priority 2000, published 2004)

Test system: anaesthetized naïve female rats
Assay: Cystometry on anaesthetized naïve rats (suppression of rhythmic spontaneous bladder contractions)
Format: in vivo, rat
Conditions: i.v., cumulative administration; mean of the lowest dose of 3 independent experiments at which contractions are first absent over a period of 10 min
Description: The cystometric investigation of naïve female rats was carried out by the method of Kimura et al. (Kimura et al., 1996, Int. J. Urol. 3:218-227). The abdomen of anaesthetized ventilated rats is opened up and the ureter is tied off. The urine is drained from the kidneys. A catheter is inserted into the bladder and fixed. […] After stable starting values are reached, the test substance is administered i.v. in a cumulative manner. An influence on bladder function manifests itself via suppression of spontaneous contractions. The absence of contractions over a period of 10 min is used as an indication of suppression.
A suppression of spontaneous contractions in the rats was measurable with all the substances tested. Table II indicates the mean of the lowest dose of 3 independent experiments at which for the first time contractions are absent over a period of 10 min.

Structure (SMILES) | Lowest dose effective for suppression of contraction
CCOC(=O)[C@]1(c2ccccc2)CCC=C[C@H]1N(C)C (relative stereo) [Tilidine, trans-2-(dimethylamino)-1-phenyl-3-cyclohexene-1-carboxylic acid ethyl ester] | 0.5 (n = 3) mg/kg
CCC1(c2cccc(O)c2)CCCCN(C)C1 (stereo not drawn) [Meptazinol, 3-(3-ethylhexahydro-1-methyl-1H-azepin-3-yl)phenol] | 1.0 (n = 3) mg/kg
COc1ccc2c3c1O[C@H]1[C@@H](O)C=C[C@H]4[C@@H](C2)N(C)CC[C@@]341 [Codeine (phosphate), (5a,6a)-7,8-didehydro-4,5-epoxy-3-methoxy-17-methylmorphinan-6-ol] | 4.7 (n = 3) mg/kg
